Literature values, collected in US20140107050A1, “INCREASING BIOAVAILABILITY OF N-COUMAROYLDOPAMINE THROUGH CO-ADMINISTRATION WITH A CATECHOL-O-[…] (COMT) INHIBITOR” (Redefine Nutrition, LLC, priority 2012, published 2014).

Tests used:
[1] = biological target: T1, catechol-o-methyltransferase (COMT) (Homo sapiens, UniProt P21964); details: values taken from cited literature; read-out: half maximal inhibitory concentration (IC50) for COMT inhibition
T1 sequence (P21964 1-271): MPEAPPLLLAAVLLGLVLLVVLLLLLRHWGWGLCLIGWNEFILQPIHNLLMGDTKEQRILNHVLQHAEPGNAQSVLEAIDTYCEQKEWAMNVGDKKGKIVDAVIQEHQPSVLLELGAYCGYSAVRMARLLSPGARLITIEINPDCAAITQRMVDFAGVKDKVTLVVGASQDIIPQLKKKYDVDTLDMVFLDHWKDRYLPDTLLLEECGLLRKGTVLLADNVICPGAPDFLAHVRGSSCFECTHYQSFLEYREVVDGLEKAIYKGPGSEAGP

beta-adrenoreceptor = biological target: T2, beta-adrenoreceptor (Homo sapiens, UniProt P07550); details: recent in vitro studies (Park 2005)
T2 construct: increase cAMP via beta 2-adrenoreceptors in myelocytic U937 cells; endogenous in cells; host or cells: U937 cells
T2 sequence (P07550 whole entry): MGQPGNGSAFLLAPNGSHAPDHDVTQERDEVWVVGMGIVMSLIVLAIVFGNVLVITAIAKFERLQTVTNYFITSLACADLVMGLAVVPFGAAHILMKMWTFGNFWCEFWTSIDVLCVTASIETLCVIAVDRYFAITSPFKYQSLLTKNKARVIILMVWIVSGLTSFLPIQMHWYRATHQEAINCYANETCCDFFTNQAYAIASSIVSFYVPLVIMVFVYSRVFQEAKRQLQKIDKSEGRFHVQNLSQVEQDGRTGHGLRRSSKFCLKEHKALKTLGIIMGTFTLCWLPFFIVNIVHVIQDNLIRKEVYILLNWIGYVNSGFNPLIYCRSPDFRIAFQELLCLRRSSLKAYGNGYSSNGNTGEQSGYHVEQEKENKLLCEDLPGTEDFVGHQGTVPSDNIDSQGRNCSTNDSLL

IC50 [1] [µM]	beta-adrenoreceptor agonist activity (beta-adrenoreceptor)	SMILES
1.3 to 1.4		O=C(/C=C/c1ccc(O)c(O)c1)O[C@@H]1C[C@](O)(C(=O)O)C[C@@H](O)[C@H]1O [chlorogenic acid]
	acts as a beta-adrenoreceptor agonist	O=C(/C=C/c1ccc(O)cc1)NCCc1ccc(O)c(O)c1 [N-coumaroyldopamine]
~0.5		O=c1c(O)c(-c2ccc(O)c(O)c2)oc2cc(O)cc(O)c12 [quercetin]
